Reference: US20210361771A1, “TERPENE COUPLING CONJUGATE” (LABORATOIRES ERIGER, priority 2020, published 2021)
Values joined by “and” are separate entries in the source; they are usually repeats but may differ in a detail not shown here. Identical values can stand only once.

How the values were obtained:
[1] = Stability of the nanoparticulate suspensions over time (DLS); assay type: physicochemical; conditions: suspension stored at 23° C.
Description: The mean particle sizes were measured using the “Dynamic Light Scattering” (DLS) method on a Malvern-Panalytical Nano-Sizer ZS® at 25° C. with a detection angle of 173° and a wavelength of 633 nm. The reported sizes are determined by the mean of three measurements. The measurements were carried out in polystyrene cuvettes.
A solution of conjugate in EtOH (2 mg for 0.5 mL) is added dropwise to vigorously stirred MiliQ water (1 mL). The formation of nanoparticles is observed in that the solution becomes partially cloudy. The suspension that is thus obtained is transferred to a flask and the EtOH is evaporated on a rotary evaporator (200 mbar for 5 min, then 130 mbar for 1 min at 40° C. and at 50 revolutions per minute).
The residual suspension is transferred to a vial and stored at 23° C.
The samples are prepared as follows: 40 μL of the residual suspension is dissolved in 500 μL of MiliQ H2O.
The stability of the suspensions was measured over time and the results are summarized in Tables 2 and 3 and in the graph of FIG. 1 and in the graph of FIG. 2.

[2] = Influence of phytolization on the stability of retinol, HPLC monitoring; assay type: physicochemical; conditions: for A (mU), HPLC area, single measurement: 6 mg/L in H2O/iPrOH 1:1, 21° C., ambient light; for A (mU), HPLC area, Average: average of two measurements
Description: The HPLC analyzes were carried out with an “Ultimate 3000 system” chain, Dionex®, France on a C18 “Vintage series KR C18—5 μm-150×4.6 mm (Interchim®) column. The samples were detected by UV absorption at λ=325 nm.
Vitamin A (retinol) is known to be sensitive to oxygen and UV radiation. The phytolization process allows retinol to be stabilized.
The solutions of retinol and conjugate 9 in nanoparticulate form (6 mg/L in an H2O/iPrOH 1:1 mixture) were stored at 21° C. in ambient light and analyzed by HPLC over time (24 and 48 h).
The variation in the area of the compounds over time is shown over time (average of two measurements)—see Table 5 and the graph of FIG. 3.

d (nm) ([1]; Time 1 h)	d (nm) ([1]; Time 24 h)	d (nm) ([1]; Time 168 h)	d (nm) ([1]; Time 196 h)	Breakdown rate of free retinol compared with conjugate 9 ([2]; free form vs nanoparticulate conjugate, 48 h)	Variation of areas ([2]; t0)	A (mU), HPLC area, single measurement ([2]; t0)	A (mU), HPLC area, Average ([2]; t0)	A (mU), HPLC area, single measurement ([2]; t24 h)	A (mU), HPLC area, Average ([2]; t24 h)	Variation of areas ([2]; t24 h vs t0)	A (mU), HPLC area, single measurement ([2]; t48 h)	A (mU), HPLC area, Average ([2]; t48 h)	Variation of areas ([2]; t48 h vs t0)	Molecule
132.9 nm	154.5 nm	156.6 nm	164.1 nm	–	–	–	–	–	–	–	–	–	–	Phytyl Ibuprofenate [Conjugate 3]
270.0 nm	369.7 nm	502.4 nm	436.8 nm	–	–	–	–	–	–	–	–	–	–	Phytyl Diclofenate [Conjugate 4]
256.2 nm	269.7 nm	271.2 nm	269.6 nm	–	–	–	–	–	–	–	–	–	–	C/C(=C\COC(=O)CCC(=O)OC1CCC(C(C)(C)C)CC1)CCC[C@H](C)CCC[C@H](C)CCCC(C)C (mixture of isomers) [Conjugate 7, Phytyl (4-tert-butyl cyclohexyl) succinate]
–	–	–	–	twice as quickly	0.0000	0.0502 mU and 0.0694 mU	0.0598 mU	0.0354 mU and 0.0360 mU	0.0357 mU	0.4030	0.0218 mU and 0.0273 mU	0.0246 mU	0.5895	CC1=C(/C=C/C(C)=C/C=C/C(C)=C/CO)C(C)(C)CCC1 [Retinol, retinol]
167.4 nm	165.2 nm	151.8 nm	131.3 nm	–	0.0000	4.1604 mU and 4.0495 mU	4.1050 mU	3.4609 mU and 3.3380 mU	3.3995 mU	0.1719	2.9536 mU and 2.9385 mU	2.9461 mU	0.2823	CC1=C(/C=C/C(C)=C/C=C/C(C)=C/COC(=O)CCC(=O)OC/C=C(\C)CCC[C@H](C)CCC[C@H](C)CCCC(C)C)C(C)(C)CCC1 [Conjugate 9, Phytyl Retinyl Succinate]
